Measured values as given in ChEMBL document CHEMBL5050849 (2020).

target: Ubiquitin carboxyl-terminal hydrolase 9X (Homo sapiens, UniProt Q93008); assay: Inhibition of USP9X (unknown origin) using Ubiquitin-Rhoadmine 110 as substrate preincubated for 30 mins followed by substrate addition and measured after 11 mins by fluorescence assay; format: single protein
Sequence (Q93008 whole entry): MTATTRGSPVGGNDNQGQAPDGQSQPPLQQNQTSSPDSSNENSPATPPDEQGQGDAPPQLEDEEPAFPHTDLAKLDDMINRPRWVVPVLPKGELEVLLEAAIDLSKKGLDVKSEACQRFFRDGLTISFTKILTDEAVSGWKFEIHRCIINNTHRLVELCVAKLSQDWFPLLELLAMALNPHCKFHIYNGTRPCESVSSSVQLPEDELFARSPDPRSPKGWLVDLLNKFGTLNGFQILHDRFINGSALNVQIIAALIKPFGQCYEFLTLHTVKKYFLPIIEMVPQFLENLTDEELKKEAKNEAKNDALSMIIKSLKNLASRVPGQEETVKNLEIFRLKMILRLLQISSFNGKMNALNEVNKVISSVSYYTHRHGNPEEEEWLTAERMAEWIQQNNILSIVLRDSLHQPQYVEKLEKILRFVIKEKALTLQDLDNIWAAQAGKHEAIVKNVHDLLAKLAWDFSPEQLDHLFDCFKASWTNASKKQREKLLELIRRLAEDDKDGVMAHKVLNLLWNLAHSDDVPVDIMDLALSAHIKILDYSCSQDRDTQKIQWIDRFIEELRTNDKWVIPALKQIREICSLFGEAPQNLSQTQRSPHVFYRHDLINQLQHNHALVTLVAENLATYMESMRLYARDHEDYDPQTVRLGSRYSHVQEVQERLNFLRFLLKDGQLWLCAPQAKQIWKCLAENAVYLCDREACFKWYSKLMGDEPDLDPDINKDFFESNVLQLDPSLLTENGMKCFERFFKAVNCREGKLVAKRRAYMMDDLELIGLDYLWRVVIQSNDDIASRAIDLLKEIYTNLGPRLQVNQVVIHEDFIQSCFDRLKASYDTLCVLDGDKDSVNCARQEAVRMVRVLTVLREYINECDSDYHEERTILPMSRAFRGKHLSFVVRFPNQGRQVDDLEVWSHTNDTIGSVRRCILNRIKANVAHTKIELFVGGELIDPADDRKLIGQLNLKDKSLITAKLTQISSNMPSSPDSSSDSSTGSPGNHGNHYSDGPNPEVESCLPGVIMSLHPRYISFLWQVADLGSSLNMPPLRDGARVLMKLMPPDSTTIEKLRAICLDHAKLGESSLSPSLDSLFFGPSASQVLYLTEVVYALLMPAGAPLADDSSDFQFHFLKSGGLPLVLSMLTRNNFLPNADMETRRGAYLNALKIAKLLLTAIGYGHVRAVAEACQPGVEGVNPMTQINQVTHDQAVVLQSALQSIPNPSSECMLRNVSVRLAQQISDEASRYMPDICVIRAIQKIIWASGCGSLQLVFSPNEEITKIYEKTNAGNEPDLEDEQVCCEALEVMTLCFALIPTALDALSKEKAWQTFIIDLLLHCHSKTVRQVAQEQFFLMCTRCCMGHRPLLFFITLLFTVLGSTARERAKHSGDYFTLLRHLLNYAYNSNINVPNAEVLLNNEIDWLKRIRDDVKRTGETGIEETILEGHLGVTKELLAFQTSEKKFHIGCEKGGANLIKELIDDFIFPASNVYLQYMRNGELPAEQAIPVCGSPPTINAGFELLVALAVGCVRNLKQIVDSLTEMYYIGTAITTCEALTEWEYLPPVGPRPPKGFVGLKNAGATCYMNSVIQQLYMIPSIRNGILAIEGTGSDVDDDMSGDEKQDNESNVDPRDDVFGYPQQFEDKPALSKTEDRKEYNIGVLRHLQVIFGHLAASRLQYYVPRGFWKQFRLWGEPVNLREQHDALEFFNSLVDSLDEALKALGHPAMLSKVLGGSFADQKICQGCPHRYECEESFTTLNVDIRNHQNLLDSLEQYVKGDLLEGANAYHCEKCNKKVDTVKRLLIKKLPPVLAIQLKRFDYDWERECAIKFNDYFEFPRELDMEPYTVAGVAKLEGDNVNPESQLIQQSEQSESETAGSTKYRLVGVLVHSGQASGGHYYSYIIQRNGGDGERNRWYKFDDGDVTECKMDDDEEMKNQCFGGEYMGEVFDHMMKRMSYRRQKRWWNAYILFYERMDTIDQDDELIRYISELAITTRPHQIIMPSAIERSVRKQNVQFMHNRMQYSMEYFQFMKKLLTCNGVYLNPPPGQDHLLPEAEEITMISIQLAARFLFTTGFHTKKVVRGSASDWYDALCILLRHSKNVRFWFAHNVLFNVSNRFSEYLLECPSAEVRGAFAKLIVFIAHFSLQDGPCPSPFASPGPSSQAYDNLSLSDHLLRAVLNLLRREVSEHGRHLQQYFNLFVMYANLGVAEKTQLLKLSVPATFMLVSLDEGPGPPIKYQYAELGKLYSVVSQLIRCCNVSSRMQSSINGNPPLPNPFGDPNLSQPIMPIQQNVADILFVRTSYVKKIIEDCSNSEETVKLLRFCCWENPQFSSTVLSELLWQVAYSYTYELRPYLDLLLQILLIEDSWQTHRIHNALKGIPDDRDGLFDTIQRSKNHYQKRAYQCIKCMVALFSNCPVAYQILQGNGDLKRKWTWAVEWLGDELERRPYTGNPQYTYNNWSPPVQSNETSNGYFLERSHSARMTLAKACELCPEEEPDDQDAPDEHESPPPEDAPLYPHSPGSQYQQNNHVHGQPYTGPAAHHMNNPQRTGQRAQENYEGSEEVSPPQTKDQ

IC50, > 25 µM:
COc1ccc(S(=O)(=O)N2CCc3nn(C(=O)[C@@H](O)c4ccccc4)cc3C2)cc1O, C[C@@H](c1ccccc1)N1Cc2cc(S(=O)(=O)c3ccc4c(c3)OCCO4)ccc2C1=O, O=S(=O)(c1ccc(-n2ccnc2)cc1)N1Cc2cnc(C(O)c3ccccc3)cc2C1 (centres undefined), O=S(=O)(C1CCN(c2nccs2)CC1)N1Cc2cnc(C(O)c3ccccc3)cc2C1 (centres undefined), O=S(=O)(C1CCN(c2ncco2)CC1)N1Cc2cnc(C(O)c3ccccc3)cc2C1 (centres undefined), O=C(c1cccc(Cl)c1)c1cc2c(cn1)CN(S(=O)(=O)c1ccc3c(c1)OCCO3)C2, O=C([C@@H](O)c1ccccc1)N1CCc2c(cnn2S(=O)(=O)c2ccc3c(c2)OCCO3)C1, O=S(=O)(c1ccccc1)c1cc2c(cn1)CN(S(=O)(=O)c1ccc(-c3ncco3)cc1)C2, OC(c1ccccc1)c1cc2c(cn1)CN(Cc1ccc3c(c1)OCCO3)C2 (centres undefined)
